Measured values: patent publication US6425888B1, “Ocular treatment device” (R. P. Scherer Corporation, priority 1994, dated 2002)
Counter-ions that a name gives are not always drawn.

Test system: rabbits
Test: Miotic response (pupil diameter) of rabbits after a single spray from the blister crushing device of FIG. 18
Format: in vivo, rabbit
Conditions: left eye, mean of 5 rabbits
From the text: The device of FIG. 18 was used in a study of the ocular response of rabbits to treatment according to the invention. The rabbits selected for the study were allowed to acclimatise for 4-5 days prior to treatment. They were subjected to manual restraining for 2 days prior to the study to condition them to the procedures involved in dosing. A device of the kind illustrated in FIG. 18 was then used to administer a single spray of isotonic 2% Pilocarpine hydrochloride (Pilocarpine HCl) solution to the corneal surface of the left eve of each of 5 rabbits, the right eyes remaining undosed. The following settings were used: 100 μm nozzle diameter 2.5 cm distance between nozzle tip and animal eye Sprays targeted towards the centre of the cornea of the animal eye The miotic response (reduction in pupil diameter) at various intervals following the application of the pilocarpine HCl solution was monitored under constant illumination using video photography. The pupil diameter of the left eye was expressed in proportion to the diameter of a fixed reference aperture situated at an equal distance from the video camera. The actual diameter was then calculated from the known diameter of the reference aperture.

## CC[C@@H]1C(=O)OC[C@@H]1Cc1cncn1C [Pilocarpine HCl, Pilocarpine hydrochloride]
+15 min after dose
  Pupil Diameter: 6.7 mm
+30 min after dose
  Pupil Diameter: 6.8 mm
+45 min after dose
  Pupil Diameter: 6.9 mm
+1 hr after dose
  Pupil Diameter: 6.8 mm
+1.5 hr after dose
  Pupil Diameter: 6.9 mm
+2 hr after dose
  Pupil Diameter: 7.3 mm
+2.5 hr after dose
  Pupil Diameter: 7.8 mm
+3 hr after dose
  Pupil Diameter: 7.9 mm
+3.5 hr after dose
  Pupil Diameter: 8.0 mm
+4 hr after dose
  Pupil Diameter: 7.8 mm
Dose (0 min), single spray of isotonic 2% solution to cornea
  Pupil Diameter: 7.8 mm
